Data taken from patent US11248010B2, “Compounds, compositions, and methods for modulating CFTR” (Proteostasis Therapeutics, Inc., priority 2016, dated 2022).

Target: T1, ΔF508-CFTR (Homo sapiens, UniProt P13569, DEL508-508)
T1 construct: primary lung epithelial cells (hBEs) homozygous for the Cystic Fibrosis-causing ΔF508 mutation are differentiated; endogenous in cells; host or cells: primary human bronchial epithelial cells (hBEs) homozygous for ΔF508, differentiated at an air-liquid interface
Test: Ussing measurements (CFTR activity assay)
Type: cell-based
Details: compound at 1 uM; activity relative to a corrector (VX-809 (3 uM)); primary lung epithelial cells (hBEs) homozygous for ΔF508; CFTRinh-172-inhibitable short-circuit current
Experimental: As discussed above, Ussing measurements are used to measure CFTR activity. In this method, primary lung epithelial cells (hBEs) homozygous for the Cystic Fibrosis-causing ΔF508 mutation are differentiated for a minimum of 4 weeks in an air-liquid interface on SnapWell filter plates prior to the Ussing measurements. Cells are apically mucus-washed for 30 minutes prior to treatment with compounds. The basolateral media is removed and replaced with media containing the compound of interest diluted to its final concentration from DMSO stocks. Treated cells are incubated at 37° C. and 5% CO2 for 24 hours. At the end of the treatment period, the cells on filters are transferred to the Ussing chamber and equilibrated for 30 minutes. The short-circuit current is measured in voltage clamp-mode (Vhold=0 mV), and the entire assay is conducted at a temperature of 36° C.-36.5° C. Once the voltages are stabilized, the chambers are clamped, and data is recorded by pulse readings every 5 seconds. Following baseline current stabilization, the following additions can be applied and the changes in current and resistance of the cells can be monitored:
1. Benzamil to the apical chamber to inhibit ENaC sodium channel.
2. Forskolin to both chambers to activate ΔF508-CFTR by phosphorylation.
3. VX-770 to the apical chamber to potentiate ΔF508-CFTR channel opening.
4. CFTRinh-172 to the apical chamber to inhibit ΔF508-CFTR Cl— conductance.
The inhibitable current (that current that is blocked by CFTRinh-172) is measured as the specific activity of the ΔF508-CFTR channel, and increases in response to compound in this activity over that observed in vehicle-treated samples are identified as the correction of ΔF508-CFTR function imparted by the compound tested.
(+ indicates activity <200% of a corrector (VX-809 (3 uM)) with compound at 1 uM; ++ indicates activity >200% of a corrector (VX-809 (3 uM)) with compound at 1 uM.

T1 sequence (P13569 with tags, fused parts or gaps DEL508-508): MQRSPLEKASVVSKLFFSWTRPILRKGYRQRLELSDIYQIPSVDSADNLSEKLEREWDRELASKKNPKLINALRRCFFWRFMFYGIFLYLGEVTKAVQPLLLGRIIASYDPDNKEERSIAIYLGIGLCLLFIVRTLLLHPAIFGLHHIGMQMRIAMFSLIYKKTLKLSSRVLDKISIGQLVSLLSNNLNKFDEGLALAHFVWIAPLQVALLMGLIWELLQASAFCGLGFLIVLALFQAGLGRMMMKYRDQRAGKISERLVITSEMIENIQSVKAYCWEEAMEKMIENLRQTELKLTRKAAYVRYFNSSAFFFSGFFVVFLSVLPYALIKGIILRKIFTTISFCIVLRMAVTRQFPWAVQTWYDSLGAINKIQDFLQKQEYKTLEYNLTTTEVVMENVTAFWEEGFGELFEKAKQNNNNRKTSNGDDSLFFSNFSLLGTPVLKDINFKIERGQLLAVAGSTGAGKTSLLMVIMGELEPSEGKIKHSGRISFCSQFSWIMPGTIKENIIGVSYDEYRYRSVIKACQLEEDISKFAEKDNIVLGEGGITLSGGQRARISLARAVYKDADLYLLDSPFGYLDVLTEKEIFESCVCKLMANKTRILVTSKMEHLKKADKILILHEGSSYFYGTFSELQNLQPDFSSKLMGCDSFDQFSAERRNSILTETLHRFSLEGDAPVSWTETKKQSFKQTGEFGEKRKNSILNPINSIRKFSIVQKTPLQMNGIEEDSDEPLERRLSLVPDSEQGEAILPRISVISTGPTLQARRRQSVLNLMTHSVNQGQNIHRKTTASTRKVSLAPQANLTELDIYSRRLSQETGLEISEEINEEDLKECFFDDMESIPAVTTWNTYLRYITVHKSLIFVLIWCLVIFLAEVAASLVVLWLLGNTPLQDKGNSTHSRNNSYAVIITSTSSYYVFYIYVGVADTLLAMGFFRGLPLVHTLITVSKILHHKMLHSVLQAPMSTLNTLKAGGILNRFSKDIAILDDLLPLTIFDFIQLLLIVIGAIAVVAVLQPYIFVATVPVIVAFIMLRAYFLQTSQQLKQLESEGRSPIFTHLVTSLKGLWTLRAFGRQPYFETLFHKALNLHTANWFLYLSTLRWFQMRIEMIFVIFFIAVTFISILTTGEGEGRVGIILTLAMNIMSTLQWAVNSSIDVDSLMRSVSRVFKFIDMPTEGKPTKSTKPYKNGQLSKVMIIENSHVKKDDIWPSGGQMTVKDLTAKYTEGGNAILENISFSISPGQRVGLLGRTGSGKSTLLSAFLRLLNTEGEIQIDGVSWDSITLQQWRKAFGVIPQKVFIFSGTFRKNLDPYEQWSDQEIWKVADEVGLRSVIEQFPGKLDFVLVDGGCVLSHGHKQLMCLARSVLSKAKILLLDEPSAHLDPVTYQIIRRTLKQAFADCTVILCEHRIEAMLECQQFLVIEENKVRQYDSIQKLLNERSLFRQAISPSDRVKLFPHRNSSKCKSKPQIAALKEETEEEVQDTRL

Structure (SMILES) | Activity
C[Si](C)(C)c1cc([Si](C)(C)C)c(NC(=O)c2c[nH]c3ccccc3c2=O)cc1O [Compound 11, N-(5-Hydroxy-2,4-bis(trimethylsilyl)phenyl)-4-oxo-1,4-dihydroquinoline-3-carboxamide] | ++ (activity >200% of a corrector (VX-809 (3 uM)) with compound at 1 uM)
[2H]C([2H])([2H])[Si](c1cc([Si](C([2H])([2H])[2H])(C([2H])([2H])[2H])C([2H])([2H])[2H])c(NC(=O)c2c[nH]c3ccccc3c2=O)cc1O)(C([2H])([2H])[2H])C([2H])([2H])[2H] [Compound 13, N-(5-Hydroxy-2,4-bis(tris(methyl-d3)silyl)phenyl)-4-oxo-1,4-dihydroquinoline-3-carboxamide] | ++ (activity >200% of a corrector (VX-809 (3 uM)) with compound at 1 uM)
CC(C)(C)c1cc([Si](C)(C)C(C)(C)C)c(NC(=O)c2c[nH]c3ccccc3c2=O)cc1O [Compound 10, N-(4-(tert-Butyl)-2-(tert-butyldimethylsilyl)-5-hydroxyphenyl)-4-oxo-1,4-dihydroquinoline-3-carboxamide] | ++ (activity >200% of a corrector (VX-809 (3 uM)) with compound at 1 uM)
CC(C)[Si](C)(C)c1cc(C(C)(C)C)c(NC(=O)c2c[nH]c3ccccc3c2=O)cc1O [Compound 6, N-[2-tert-Butyl-4-[dimethyl(propan-2-yl)silyl]-5-hydroxyphenyl]-4-oxo-1,4-dihydroquinoline-3-carboxamide] | ++ (activity >200% of a corrector (VX-809 (3 uM)) with compound at 1 uM)
CC[Si](C)(CC)c1cc(C(C)(C)C)c(NC(=O)c2c[nH]c3ccccc3c2=O)cc1O [Compound 3, N-[2-tert-Butyl-4-[diethyl(methyl)silyl]-5-hydroxyphenyl]-4-oxo-1,4-dihydroquinoline-3-carboxamide] | ++ (activity >200% of a corrector (VX-809 (3 uM)) with compound at 1 uM)
CC(C)(C)c1cc([Si](C)(C)C)c(O)cc1NC(=O)c1c[nH]c2ccccc2c1=O [Compound 1, N-[2-tert-Butyl-5-hydroxy-4-(trimethylsilyl)phenyl]-4-oxo-1,4-dihydroquinoline-3-carboxamide] | ++ (activity >200% of a corrector (VX-809 (3 uM)) with compound at 1 uM)
CC[Si](CC)(CC)c1cc(C(C)(C)C)c(NC(=O)c2c[nH]c3ccccc3c2=O)cc1O [Compound 4, N-(2-(tert-Butyl)-5-hydroxy-4-(triethylsilyl)phenyl)-4-oxo-1,4-dihydroquinoline-3-carboxamide] | + (activity <200% of a corrector (VX-809 (3 uM)) with compound at 1 uM)
[2H]C([2H])([2H])[Si](c1cc(C(C)(C)C)c(NC(=O)c2c[nH]c3ccccc3c2=O)cc1O)(C([2H])([2H])[2H])C([2H])([2H])[2H] [Compound 12, N-(2-(tert-Butyl)-5-hydroxy-4-(tris(methyl-d3)silyl)phenyl)-4-oxo-1,4-dihydroquinoline-3-carboxamide] | ++ (activity >200% of a corrector (VX-809 (3 uM)) with compound at 1 uM)
CC[Si](C)(C)c1cc(C(C)(C)C)c(NC(=O)c2c[nH]c3ccccc3c2=O)cc1O [Compound 2, N-[2-tert-Butyl-4-(ethyldimethylsilyl)-5-hydroxyphenyl]-4-oxo-1,4-dihydroquinoline-3-carboxamide] | ++ (activity >200% of a corrector (VX-809 (3 uM)) with compound at 1 uM)
C[Si](C)(C)c1cc(C(F)(F)F)c(NC(=O)c2c[nH]c3ccccc3c2=O)cc1O [Compound 19, N-(5-Hydroxy-2-(trifluoromethyl)-4-(trimethylsilyl)phenyl)-4-oxo-1,4-dihydroquinoline-3-carboxamide] | ++ (activity >200% of a corrector (VX-809 (3 uM)) with compound at 1 uM)
CC(C)(C)c1cc([Si](C)(C)c2ccccc2)c(O)cc1NC(=O)c1c[nH]c2ccccc2c1=O [Compound 7, N-(2-(tert-Butyl)-4-(dimethyl(phenyl)silyl)-5-hydroxyphenyl)-4-oxo-1,4-dihydroquinoline-3-carboxamide] | ++ (activity >200% of a corrector (VX-809 (3 uM)) with compound at 1 uM)
CC(C)(C)c1cc([Si](C)(C)C)c(NC(=O)c2c[nH]c3ccccc3c2=O)cc1O [Compound 8, N-[4-tert-Butyl-5-hydroxy-2-(trimethylsilyl)phenyl]-4-oxo-1,4-dihydroquinoline-3-carboxamide] | ++ (activity >200% of a corrector (VX-809 (3 uM)) with compound at 1 uM)
CC(C)(C)c1cc([Si](C)(C)C(C)(C)C)c(O)cc1NC(=O)c1c[nH]c2ccccc2c1=O [Compound 5, N-(2-tert-Butyl-4-(tert-butyldimethylsilyl)-5-hydroxyphenyl)-4-oxo-1,4-dihydroquinoline-3-carboxamide] | ++ (activity >200% of a corrector (VX-809 (3 uM)) with compound at 1 uM)
C[Si](C)(C)c1cc(F)c(NC(=O)c2c[nH]c3ccccc3c2=O)cc1O [Compound 18, N-(2-Fluoro-5-hydroxy-4-(trimethylsilyl)phenyl)-4-oxo-1,4-dihydroquinoline-3-carboxamide] | ++ (activity >200% of a corrector (VX-809 (3 uM)) with compound at 1 uM)
C[Si](C)(C)c1ccc(NC(=O)c2c[nH]c3ccccc3c2=O)cc1O [Compound 17, N-(3-Hydroxy-4-(trimethylsilyl)phenyl)-4-oxo-1,4-dihydroquinoline-3-carboxamide] | ++ (activity >200% of a corrector (VX-809 (3 uM)) with compound at 1 uM)
